Reference: paper PMC11187573, “Identification of SARS-CoV-2 Mpro inhibitors through deep reinforcement learning for de novo drug design and computational chemistry approaches” (RSC Medicinal Chemistry, 2024)
Where two headings read alike, the source gives them in different places.

How the values were obtained:
SARS-CoV-2 main protease [1] = format: biochemical; conditions: Docking validation set, class assigned from COVID Moonshot IC50
SARS-CoV-2 main protease [2] = conditions: Docking_validation.csv; ref COVID Moonshot; read-out: f_avg_IC50; cited from earlier work
[3] = tested on: SARS, SARS-CoV-2 and MERS Mpro; conditions: cited from earlier work
Mpro = conditions: ML dataset, cited from earlier work
trypsin = tested on: trypsin; design: method as in COVID Moonshot; conditions: Docking_validation.csv; ref COVID Moonshot; read-out: trypsin_IC50; cited from earlier work
[4] = biological target: recombinant SARS-CoV-2 main protease Mpro (Severe acute respiratory syndrome coronavirus 2, UniProt P0DTC1); test: FRET-based Mpro proteolytic activity assay; format: biochemical; conditions: Mpro FRET (1 μM DTT)
[5] = Origin COVID_Moonshot, ref COVID Moonshot

Structure (SMILES) | label (active / inactive) (SARS-CoV-2 main protease [1]) | IC50 [3, 5] [nM] | IC50 (Mpro; [5]) [nM] | further results
O=C(Nc1nncn1C1CC1)C1CCOc2ccccc21 (stereo not shown) [EDJ-MED-0e996074-1, O=C(Nc1nncn1C1CC1)C1CCOc2ccccc21] | inactive | – | – | –
O=C(Cn1nnc2ccccc21)N(Cc1ccccn1)c1ccc(-n2cnnc2)cc1 [ALP-POS-c0c213c9-18, O=C(Cn1nnc2ccccc21)N(Cc1ccccn1)c1ccc(-n2cnnc2)cc1] | inactive | – | – | –
COc1ccc(Cl)cc1OCCNC(=O)c1cc(=O)[nH]c2cccc(OC)c12 [MAT-POS-3b536971-1, COc1ccc(Cl)cc1OCCNC(=O)c1cc(=O)[nH]c2cccc(OC)c12] | – | 874 | – | IC50 (SARS-CoV-2 main protease [2]): 874 nM
O=C(Nc1cccc(C(F)(F)F)c1)Nc1ccccc1Sc1ncc([N+](=O)[O-])s1 [LON-WEI-4d77710c-69, O=C(Nc1cccc(C(F)(F)F)c1)Nc1ccccc1Sc1ncc([N+](=O)[O-])s1] | – | – | – | IC50 (SARS-CoV-2 main protease [2]): 6260 nM
Cc1ccc(N(Cc2cccc(Cl)c2)C(=O)Cn2nnc3ccccc32)cc1 [CHO-MSK-00c5269a-1, Cc(cc1)ccc1N(Cc1cccc(Cl)c1)C(Cn1nnc2c1cccc2)=O, reference compound] | – | 2330 | 2820 | –
O=C(c1cc(=O)[nH]c2ccc(F)cc12)N1CCN(S(=O)(=O)c2cccc(Cl)c2)CC1 [MAT-POS-590ac91e-69, O=C(c1cc(=O)[nH]c2ccc(F)cc12)N1CCN(S(=O)(=O)c2cccc(Cl)c2)CC1] | inactive | – | – | –
N#Cc1cnn(C(=O)c2cccs2)c1C1CC1 [LON-WEI-4d77710c-70, N#Cc1cnn(C(=O)c2cccs2)c1C1CC1] | – | 3240 | 1800 | IC50 (SARS-CoV-2 main protease [2]): 3240 nM
O=C(Nc1nncn1C1CC1)C1CCOc2c(F)cccc21 (stereo not shown) [BRU-THA-a358fbdd-7, O=C(Nc1nncn1C1CC1)C1CCOc2c(F)cccc21] | inactive | – | – | –
O=c1oc(Nc2ccccc2)nc2ccccc12 [MAT-POS-ea426761-13, O=C1OC(Nc2ccccc2)=Nc2c1cccc2, reference compound] | – | 1570 | 966 | –
O=C(Nc1cncc2ccccc12)C1=CCCc2ccc(Cl)cc21 [MAT-POS-0c8fa4a7-1, O=C(Nc1cncc2ccccc12)C1=CCCc2ccc(Cl)cc21] | – | 233 | 157 | IC50 (SARS-CoV-2 main protease [2]): 233 nM
Cn1ccc(C(=O)NC[C@@H]2CCCO2)n1 [AAR-POS-0daf6b7e-23, Cn1ccc(C(=O)NC[C@@H]2CCCO2)n1] | inactive | – | – | –
CCOC(=O)c1cc(-c2ccccc2)sc1NC(=O)Cc1csc(-c2ccccc2)n1 [LON-WEI-4d77710c-24, CCOC(c1c(NC(Cc2csc(-c3ccccc3)n2)=O)sc(-c2ccccc2)c1)=O, reference compound] | – | 4660 | 3670 | –
O=C(Nc1ccccc1)[C@@H](c1ccccc1)N1Cc2ccccc2C1=O [LON-WEI-b2874fec-15, O=C(Nc1ccccc1)[C@@H](c1ccccc1)N1Cc2ccccc2C1=O] | inactive | – | – | –
O=C(Oc1cncc(Cl)c1)c1cccc2[nH]ccc12 [ALP-POS-c59291d4-5, O=C(Oc1cncc(Cl)c1)c1cccc2[nH]ccc12] | – | – | – | IC50 (trypsin): 99000 nM
Cc1ccncc1CC(=O)Nc1cccc2c1CNCC2 [ADA-UCB-6c2cb422-3, Cc1ccncc1CC(=O)Nc1cccc2c1CNCC2] | inactive | – | – | –
O=C1CC(Oc2cc(Cl)cc(CC(=O)Nn3cnc4ccccc43)c2)N1 (stereo not shown) [MAT-POS-c478e61b-1, O=C1CC(Oc2cc(Cl)cc(CC(=O)Nn3cnc4ccccc43)c2)N1] | inactive | – | 90600 | IC50 (SARS-CoV-2 main protease [2]): 82100 nM
CCn1cncc1NC(=O)C1c2cc(Cl)cc(Cl)c2OCC1C (stereo not shown) [Compound 21, 6,8-dichloro-N-(1-ethyl-1H-imidazol-5-yl)-3-methylchromane-4-carboxamide] | – | – | – | IC50 [4]: 66900 nM
O=C(Nc1c[nH]nc1-c1ccccn1)c1cccc2nccn12 [COM-UCB-8c7d23dc-15, O=C(Nc1c[nH]nc1-c1ccccn1)c1cccc2nccn12] | inactive | – | – | –
O=C(Cc1cc(Cl)cc(Oc2cccnc2)c1)Nc1cncc2ccccc12 [MAT-POS-9ff17035-3, O=C(Cc1cc(Cl)cc(Oc2cnccc2)c1)Nc1cncc2ccccc12, reference compound] | – | 1340 | 1410 | –
CC(C)c1cc(CNc2nc(Nc3cc(C4CC4)[nH]n3)cc(N3CCN(C)CC3)n2)on1 [CHEMBL3545085, CC(C)c1noc(CNc2nc(N3CCN(C)CC3)cc(Nc3n[nH]c(C4CC4)c3)n2)c1, reference compound] | – | – | – | IC50 (Mpro; Origin ChEMBL, ref ChEMBL): 1490 nM; IC50 ([3]; Origin ChEMBL, ref ChEMBL): 1490 nM
O=C(Nc1nncn1C1CC1)C1CCOc2ccc(Cl)cc21 (stereo not shown) [JAG-UCB-a3ef7265-20, O=C(Nc1nncn1C1CC1)C1CCOc2ccc(Cl)cc21] | inactive | – | – | –
O=C(Nc1cccnc1)N(CCN1CCOCC1)c1cccc(Cl)c1 [JOR-UNI-2fc98d0b-6, O=C(Nc1cccnc1)N(CCN1CCOCC1)c1cccc(Cl)c1] | inactive | – | – | –
